Data set [1] has as its system AGS human gastric adenocarcinoma cells. Description: MTT reduction cytotoxicity assay, 72 h drug exposure, AGS. The data set is classed as cell-based. The note with it: human gastric adenocarcinoma cell line, 72 h exposure, average of six determinations, read-out: IC50 ± SEM, AGS.
Data set [2] relates to SK-MES-1 human lung cancer cells. Description: MTT reduction cytotoxicity assay, 72 h drug exposure, SK-MES-1. The data set is classed as cell-based. The note with it: 72 h exposure, average of six determinations, read-out: IC50 ± SEM, SK-MES-1. A general note: Tetrazolium assays rely on reduction of a dye to a coloured formazan, in cell work by metabolically active cells.
Data set [3] has as its system J82 human bladder carcinoma cells. Description: MTT reduction cytotoxicity assay, 72 h drug exposure, J82. Type of data set: cell-based. As to conditions: human bladder carcinoma cell line, 72 h exposure, average of six determinations, read-out: IC50 ± SEM, J82.
In data set [4] the test system is MRC-5 normal human lung fibroblasts. The note with it: for IC50: read-out: IC50 ± SEM, MRC-5, normal human lung fibroblasts, 72 h exposure, MTT, average of six determinations.
Description: (§1) Cytotoxic activities of the compounds are expressed in terms of IC50. Etoposide, a clinically used anticancer agent, was taken as a positive control.
(§2) Media were supplemented with 10% heat-inactivated fetal bovine serum (FBS), 100 IU/mL penicillin and 100 μg/mL streptomycin and cell cultures were kept in a humidified incubator with 5% CO2 in air at 37 °C. For the cytotoxicity experiments, cells were seeded into 96-well plates at a density of 50,000 cells/mL. After reaching confluence, cells were incubated for three days with compounds at varied concentrations ranging from 0 up to 100 μM while untreated cells (medium containing 1% DMSO) were used as controls. Cytotoxicity was assessed using the MTT (3-(4,5-dimethylthiazol-2-yl)-2,5-diphenyltetrazolium bromide) reduction assay. […] Values were the means of six replicates for each concentration and transformed to percentage of controls.
Data set [5] can be described thus: MTT reduction cytotoxicity assay, 72 h drug exposure, cell line panel of Table 3. Type of data set: cell-based. As to conditions: human, summary range over the cell lines of Table 3, 72 h exposure, read-out: cytotoxic activities, range of IC50 over Table 3. As to the method:
Finally, HL-60 cells were grown in RPMI medium.

Data set [6] relates to MRC-5 normal human lung fibroblasts. Description: cells. As to conditions: MRC5, 72 h, read-out: IC50 ± SEM, MRC-5.
Description: as §1, §2
The mark [7] stands for this setting: SK-MES-1, human lung cancer cell line.

Read-outs that look alike come from different tables or passages of the source.

By IC50 is commonly meant the concentration at which inhibition is half-maximal. Regarding “Methyl (R,Z)-2-(3-benzoyl-1,4-dioxo-1,4-dihydronaphthalen-2-yl)-3-[(1-methoxy-1-oxo-3-phenylpropan-2-yl)amino]-but-2-enoate [Compound 10]”, the half-inhibitory concentration (IC50) amounted to 30.7 ± 1.5 µM in data set [1], 34.2 ± 2.3 µM in data set [2] (human lung cancer cell line), 23 ± 0.7 µM in data set [3] and 46.7 ± 2.9 µM in data set [4].
Take `CCCCCC(=O)C1=C(/C(C(=O)OC)=C(\C)N[C@@H](CC(C)C)C(=O)OC)C(=O)c2ccccc2C1=O` [Compound 13, Methyl (Z)-[3-(3-hexanoyl-1,4-dioxo-1,4-dihydronaphthalen-2-yl)-4-methoxy-4-oxobut-2-en-2-yl]-L-leucinate]: the concentration for half-maximal inhibition (IC50) came out at 17 ± 1.1 µM in data set [1], 21.6 ± 1.3 µM in data set [2] (setting [7]), 23.5 ± 1.6 µM in data set [3] and 24.9 ± 0.7 µM in data set [6]. Also, the IC50 at 72 h in data set [5] is 4.5 to 53.4 µM.
With `COc1cc([C@@H]2c3cc4c(cc3[C@@H](O[C@@H]3O[C@@H]5CO[C@@H](C)O[C@H]5[C@H](O)[C@H]3O)[C@H]3COC(=O)[C@H]23)OCO4)cc(OC)c1O` [Ref., etoposide, reference compound], the IC50 in data set [1] stood at 0.4 µM; in data set [2] (setting [7]), 2.9 ± 0.2 µM; in data set [3] it was 3.3 ± 0.2 µM; in data set [6], 2.2 ± 0.1 µM.
With “Methyl (S,Z)-3-[(3-(1H-indol-3-yl)-1-methoxy-1-oxopropan-2-yl)amino]-2-(3-hexanoyl-1,4-dioxo-1,4-dihydronaphthalen-2-yl)but-2-enoate [Compound 14]”, the 50% inhibitory concentration (IC50) came out at 9.3 ± 0.6 µM in data set [1], 5.5 ± 0.2 µM in data set [2] (human lung cancer cell line), 4.5 ± 0.2 µM in data set [3] and 22.1 ± 1.6 µM in data set [4]. For the same compound, in data set [4], the “cytotoxicity relative to etoposide on normal human lung fibroblasts cells” value is listed as “ten times lower”.
As to “Methyl (S,Z)-3-[(3-(1H-indol-3-yl)-1-methoxy-1-oxopropan-2-yl)amino]-2-(3-benzoyl-1,4-dioxo-1,4-dihydronaphthalen-2-yl)-but-2-enoate [Compound 11]”, the IC50 in data set [1] was found to be 10.1 ± 0.1 µM; in data set [2] (human lung cancer cell line) it was 18.9 ± 0.5 µM; in data set [3] it was 21.4 ± 0.8 µM; in data set [4] it was 13 ± 0.8 µM.
By melting point is commonly meant the temperature, or range, at which the solid turns liquid. Turning to `COC(=O)C1=C(C)N(CCO)C(O)(c2ccccc2)C2=C1C(=O)c1ccccc1C2=O` (stereo not shown) [Compound 5b, Methyl 1-hydroxy-2-(2-hydroxyethyl)-3-methyl-5,10-dioxo-1-phenyl-1,2,5,10-tetrahydrobenzo[g] isoquinoline-4-carboxylate], the melting point fell in the range of 236.5 to 238.5 °C.
With “Methyl (R,Z)-2-(3-butyryl-1,4-dioxo-1,4-dihydronaphthalen-2-yl)-3-[(1-methoxy-1-oxo-3-phenylpropan-2-yl)amino]-but-2-enoate [Compound 12]”, the IC50 in data set [1] was found to be 12.8 ± 0.7 µM; in data set [2] (human lung cancer cell line), 15.9 ± 0.9 µM; in data set [3] it was 14 ± 0.6 µM; in data set [4], 21.8 ± 1.5 µM.
The like results for “Methyl (S,Z)-2-(3-benzoyl-1,4-dioxo-1,4-dihydronaphthalen-2-yl)-3-[(1-methoxy-1-oxo-3-phenylpropan-2-yl)amino]-but-2-enoate [Compound 9]” were, in that order, 19.3 ± 1.5 µM, 39.3 ± 1.6 µM, 22 ± 1.1 µM and 33.3 ± 2.2 µM.
For `COC(=O)/C(C1=C(C(=O)c2ccccc2)C(=O)c2ccccc2C1=O)=C(/C)N[C@@H](C)C(=O)OC` [Compound 6, Methyl (S,Z)-2-(3-benzoyl-1,4-dioxo-1,4-dihydronaphthalen-2-yl)-3-[(1-methoxy-1-oxopropan-2-yl)amino]-but-2-enoate], the melting point fell in the range of 217 to 218 °C. In data set [1], the half-maximal inhibitory concentration (IC50) came to 52.7 ± 3.7 µM. Moreover, the IC50 in data set [2] (setting [7]) was 47.8 ± 3.3 µM. Besides, in data set [3], the IC50 came to 37.1 ± 2.2 µM. For the same compound, in data set [5], the IC50 at 72 h lay within 4.5 to 53.4 µM. Moreover, the IC50 in data set [6] was 58 ± 4.1 µM.
`COC(=O)/C(C1=C(C(=O)c2ccccc2)C(=O)c2ccccc2C1=O)=C(/C)N[C@@H](CC(C)C)C(=O)OC` [Compound 8, Methyl (Z)-[3-(3-benzoyl-1,4-dioxo-1,4-dihydronaphthalen-2-yl)-4-methoxy-4-oxobut-2-en-2-yl]-L-leucinate] yielded a melting point of 222.5 to 224.5 °C. Besides, in data set [1], the IC50 is 26.9 ± 1.5 µM. Moreover, the IC50 in data set [2] (setting [7]) stood at 34.5 ± 1.7 µM. For the same compound, the IC50 in data set [3] was 12.9 ± 0.9 µM. Besides, the 50% inhibitory concentration (IC50) at 72 h in data set [5] fell in the range of 4.5 to 53.4 µM. For the same compound, the IC50 in data set [6] is 26.6 ± 1.3 µM.
`COC(=O)/C(C1=C(C(=O)c2ccccc2)C(=O)c2ccccc2C1=O)=C(/C)N[C@H](C)C(=O)OC` [Compound 7, Methyl (R,Z)-2-(3-benzoyl-1,4-dioxo-1,4-dihydronaphthalen-2-yl)-3-[(1-methoxy-1-oxopropan-2-yl)amino]-but-2-enoate]: the IC50 is 20.5 ± 1.1 µM in data set [1], 53.4 ± 4.3 µM in data set [2] (setting [7]), 35.6 ± 1.4 µM in data set [3] and 17.4 ± 0.7 µM in data set [6]. The IC50 at 72 h in data set [5] lay in the range of 4.5 to 53.4 µM.
For `COC(=O)C1=C(C)N(CCO)C(C)(O)C2=C1C(=O)c1ccccc1C2=O` (stereo not shown) [Compound 5a, Methyl 1-hydroxy-2-(2-hydroxyethyl)-1,3-dimethyl-5,10-dioxo-1,2,5,10-tetrahydrobenzo[g]isoquinoline-4-carboxylate], the melting point was in the range of 215 to 217 °C.
